Source: publication PMC10299128, “The Parallel Structure–Activity Relationship Screening of Three Compounds Identifies the Common Agonist Pharmacophore of Pyrrolidine Bis-Cyclic Guanidine Melanocortin-3 Receptor (MC3R) Small-Molecule Ligands” (International Journal of Molecular Sciences, 2023)

How the values were obtained:
mMC1R = mMC1R (Mus musculus, UniProt Q01727); test: AlphaScreen cAMP agonist assay, HEK293 cells stably expressing mMC1R; details: for mMC1R partial agonist efficacy bin: sigmoidal curve, efficacy <90% of NDP-MSH; for mMC1R percent maximal stimulatory response (compared to NDP-MSH): at 1 mM, not enough stimulation to determine EC50
mMC3R = mMC3R (Mus musculus, UniProt P33033); test: AlphaScreen cAMP agonist assay, HEK293 cells stably expressing mMC3R; details: for mMC3R partial agonist efficacy bin: sigmoidal curve, efficacy <90% of NDP-MSH; for mMC3R percent maximal stimulatory response (compared to NDP-MSH): at 1 mM, not enough stimulation to determine EC50
Method: (§1) Pyrrolidine bis-cyclic guanidine compounds were assessed for biological activity using the AlphaScreen cAMP kit with HEK293 cells stably expressing the mMC1R, mMC3R, mMC4R, or mMC5R, as previously described [37, 38, 39]. […] Compounds were assayed for agonist activity in a 7-point dose–response curve (10^−3 to 10^−9 M). […] The purified compounds were dissolved in DMSO at a stock concentration of 10^−1 M and assayed using HEK293 cells stably expressing the mouse MC1R, MC3R, MC4R, and MC5R using the AlphaScreen cAMP bioassay (PerkinElmer, Waltham, MA, USA) according to the manufacturer’s instructions and as previously described [37, 38, 39].
(§2) Briefly, cells 70−90% confluent were dislodged with Versene (Gibco, Waltham, MA, USA) at 37 °C and 10,000 cells/well were plated in a 384-well plate (Optiplate, PerkinElmer, Waltham, MA, USA) with 10 μL of freshly prepared stimulation buffer (1× HBSS, 5 mM HEPES, 0.5 mM IBMX, 0.1% BSA, pH = 7.4) with 0.5 μg of anti-cAMP acceptor beads per well. The cells were stimulated with the addition of 5 μL of stimulation buffer containing compound or forskolin (10^−4 M) and incubated in the dark at room temperature for 2 h. Following stimulation, streptavidin donor beads (0.5 μg) and biotinylated cAMP (0.62 μmol) were added to the wells in a green light environment with 10 μL of lysis buffer (5 mM HEPES, 0.3% Tween-20, 0.1% BSA, pH = 7.4) and the plates were incubated in the dark at room temperature for an additional 2 h. Plates were read on a Enspire (PerkinElmer, Waltham, MA, USA) Alpha plate reader using a pre-normalized assay protocol (set by the manufacturer).

mMC4R = mMC4R (Mus musculus, UniProt P56450); test: AlphaScreen cAMP agonist assay, HEK293 cells stably expressing mMC4R; details: for mMC4R partial agonist efficacy bin: sigmoidal curve, efficacy <90% of NDP-MSH; for mMC4R percent maximal stimulatory response (compared to NDP-MSH): at 1 mM, not enough stimulation to determine EC50
Method: as §1, §2

mMC5R = mMC5R (Mus musculus, UniProt P41149); test: AlphaScreen cAMP agonist assay, HEK293 cells stably expressing mMC5R; details: for mMC5R partial agonist efficacy bin: sigmoidal curve, efficacy <90% of NDP-MSH; for mMC5R percent maximal stimulatory response (compared to NDP-MSH): at 1 mM, not enough stimulation to determine EC50
Sequence of mMC5R (P41149 whole entry): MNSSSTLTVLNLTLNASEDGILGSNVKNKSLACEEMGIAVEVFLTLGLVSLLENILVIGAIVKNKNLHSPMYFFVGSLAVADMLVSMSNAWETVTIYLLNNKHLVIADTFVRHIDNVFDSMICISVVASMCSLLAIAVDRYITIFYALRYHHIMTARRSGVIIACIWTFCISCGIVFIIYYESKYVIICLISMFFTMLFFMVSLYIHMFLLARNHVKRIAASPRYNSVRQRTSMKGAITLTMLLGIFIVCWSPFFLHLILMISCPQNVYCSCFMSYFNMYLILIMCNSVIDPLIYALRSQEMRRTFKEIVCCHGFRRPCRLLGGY

Sequence of mMC3R (P33033 whole entry): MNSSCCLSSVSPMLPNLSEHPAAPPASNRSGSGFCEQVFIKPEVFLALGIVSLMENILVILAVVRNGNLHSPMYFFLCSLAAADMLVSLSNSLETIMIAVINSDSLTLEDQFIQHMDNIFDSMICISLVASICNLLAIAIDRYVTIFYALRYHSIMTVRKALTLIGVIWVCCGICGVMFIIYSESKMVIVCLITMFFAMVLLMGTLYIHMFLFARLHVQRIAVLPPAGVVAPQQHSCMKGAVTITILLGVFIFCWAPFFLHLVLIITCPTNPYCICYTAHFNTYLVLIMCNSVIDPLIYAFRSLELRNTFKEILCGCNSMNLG
Sequence of mMC4R (P56450 whole entry): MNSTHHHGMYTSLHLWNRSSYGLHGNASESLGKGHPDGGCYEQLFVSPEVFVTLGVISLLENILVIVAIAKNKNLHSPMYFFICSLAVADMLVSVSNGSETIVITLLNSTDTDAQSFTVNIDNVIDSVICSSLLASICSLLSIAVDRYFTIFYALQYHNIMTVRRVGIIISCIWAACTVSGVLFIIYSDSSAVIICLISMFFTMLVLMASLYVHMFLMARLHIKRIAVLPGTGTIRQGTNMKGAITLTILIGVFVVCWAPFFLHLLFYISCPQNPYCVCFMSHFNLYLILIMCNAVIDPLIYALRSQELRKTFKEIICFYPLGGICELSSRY
Sequence of mMC1R (Q01727 whole entry): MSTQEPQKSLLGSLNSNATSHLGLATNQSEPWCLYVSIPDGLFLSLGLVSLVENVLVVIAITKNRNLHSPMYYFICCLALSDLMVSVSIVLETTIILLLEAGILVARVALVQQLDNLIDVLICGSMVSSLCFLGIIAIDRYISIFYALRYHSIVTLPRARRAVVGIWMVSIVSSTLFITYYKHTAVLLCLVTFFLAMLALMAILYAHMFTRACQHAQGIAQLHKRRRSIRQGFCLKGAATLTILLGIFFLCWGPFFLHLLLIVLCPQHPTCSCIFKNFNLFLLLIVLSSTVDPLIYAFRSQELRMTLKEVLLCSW

SMILES	EC50 (mMC1R) [µM]	EC50 (mMC3R) [µM]	mMC3R partial agonist efficacy bin (mMC3R)	EC50 (mMC4R) [µM]	EC50 (mMC5R) [µM]	mMC1R partial agonist efficacy bin (mMC1R)	mMC3R percent maximal stimulatory response (compared to NDP-MSH) (mMC3R) [% @ 1 mM]	mMC4R percent maximal stimulatory response (compared to NDP-MSH) (mMC4R) [% @ 1 mM]	mMC5R partial agonist efficacy bin (mMC5R)	also measured
CC(C)C[C@@H]1CNC(=N)N1C[C@H]1CCCN1C[C@H](Cc1ccccc1)N1C[C@@H]([C@H](C)O)N(CC2CCC(C(C)(C)C)CC2)C1=N (some centres unmarked) [Compound 2718.038]	0.6 ± 0.1	5.9 ± 0.9	B (B (51–90% receptor activation))	1.6 ± 0.3	1.4 ± 0.3	–	–	–	–	mMC4R partial agonist efficacy bin (mMC4R): B (B (51–90% receptor activation)); fold decreased mMC5R agonist potency (mMC5R; relative to 2718.001): 5 fold
CC(C)C[C@H]1CNC(=N)N1C[C@H]1CCCN1C[C@@H](Cc1ccccc1)N1C[C@H]([C@@H](C)O)N(CC2CCC(C(C)(C)C)CC2)C1=N (some centres unmarked) [Compound 2718.043]	3.5 ± 0.2	–	–	–	8 ± 2	B (B (51–90% receptor activation))	55	55	B (B (51–90% receptor activation))	–
CC(C)C[C@@H]1CNC(=N)N1C[C@H]1CCCN1C[C@@H](Cc1ccccc1)N1C[C@@H]([C@H](C)O)N(CC2CCC(C(C)(C)C)CC2)C1=N (some centres unmarked) [Compound 2718.032]	0.4 ± 0.06	1.5 ± 0.4	B (B (51–90% receptor activation))	–	0.6 ± 0.2	–	–	55	–	–
CCC[C@@H]1CN([C@@H](CC2CCCCC2)CN2CCC[C@H]2CN2C(=N)NC[C@H]2C(C)C)C(=N)N1CC1CCC(C(C)(C)C)CC1 (some centres unmarked) [Compound 2718.051]	6 ± 2	–	–	50	11	–	65	–	–	fold decreased mMC1R agonist potency (mMC1R; relative to 2718.003): 9 fold; mMC4R partial agonist efficacy bin (mMC4R): B (B (51–90% receptor activation)); fold decreased mMC5R agonist potency (mMC5R; relative to 2718.003): 9 fold
CC(C)C[C@@H]1CNC(=N)N1C[C@@H]1CCCN1C[C@@H](Cc1ccccc1)N1CCNC1=N [Compound 2718.006]	–	> 1000	–	–	–	–	–	20	–	mMC1R percent maximal stimulatory response (compared to NDP-MSH) (mMC1R): 40% @ 1 mM; mMC5R percent maximal stimulatory response (compared to NDP-MSH) (mMC5R): 30% @ 1 mM
CCN1C(=N)N([C@H](CC2CCCCC2)CN2CCC[C@H]2CN2C(=N)NC[C@H]2CC(C)C)C[C@H]1[C@H](C)O [Compound 2718.010]	5 ± 1	> 1000	–	–	45.5	B (B (51–90% receptor activation))	–	20	A (A (20–50% receptor activation))	–
CC(C)CC1CNC(=N)N1CC1CCCN1CC(C)N1CC(C(C)O)N(CC2CCC(C(C)(C)C)CC2)C1=N (centres unmarked) [Compound 2718.061]	–	–	–	> 1000	–	–	20	–	–	mMC1R percent maximal stimulatory response (compared to NDP-MSH) (mMC1R): 65% @ 1 mM; mMC5R percent maximal stimulatory response (compared to NDP-MSH) (mMC5R): 65% @ 1 mM
CC(C)C[C@@H]1CNC(=N)N1C[C@H]1CCCN1C[C@H](Cc1ccccc1)N1C[C@H]([C@@H](C)O)N(CC2CCC(C(C)(C)C)CC2)C1=N (some centres unmarked) [Compound 2718.041]	40	–	–	–	8 ± 1	–	60	60	B (B (51–90% receptor activation))	fold decreased mMC1R agonist potency (mMC1R; relative to 2718.001): 125 fold
CC(C)C[C@@H]1CNC(=N)N1C[C@@H]1CCCN1C[C@H](CC1CCCCC1)N1C[C@@H]([C@H](C)O)N(CC2CCC(C(C)(C)C)CC2)C1=N (some centres unmarked) [Compound 2718.046]	1.8 ± 0.2	9 ± 1	B (B (51–90% receptor activation))	–	5 ± 1	–	–	55	–	fold decreased mMC1R agonist potency (mMC1R; relative to 2718.002): 7 fold; fold decreased mMC5R agonist potency (mMC5R; relative to 2718.002): 17 fold
CC(C)C[C@@H]1CNC(=N)N1C[C@@H]1CCCN1CCN1C[C@@H]([C@H](C)O)N(CC2CCC(C(C)(C)C)CC2)C1=N (some centres unmarked) [Compound 2718.023]	–	–	–	40	–	–	30	–	–	mMC1R percent maximal stimulatory response (compared to NDP-MSH) (mMC1R): 85% @ 1 mM; mMC4R partial agonist efficacy bin (mMC4R): A (A (20–50% receptor activation)); mMC5R percent maximal stimulatory response (compared to NDP-MSH) (mMC5R): 80% @ 1 mM
CCN1C(=N)N([C@H](Cc2ccccc2)CN2CCC[C@H]2CN2C(=N)NC[C@H]2CC(C)C)C[C@H]1[C@H](C)O [Compound 2718.004]	20.6	> 1000	–	> 1000	> 1000	A (A (20–50% receptor activation))	–	–	–	–
CC(C)C[C@H]1CNC(=N)N1C[C@H]1CCCN1C[C@@H](Cc1ccccc1)N1C[C@@H]([C@H](C)O)N(CC2CCC(C(C)(C)C)CC2)C1=N (some centres unmarked) [Compound 2718.040]	0.9 ± 0.3	3.7 ± 0.4	B (B (51–90% receptor activation))	–	0.5 ± 0.03	–	–	60	–	–
CCC[C@@H]1CN([C@H](CC2CCCCC2)CN2CCC[C@@H]2CN2C(=N)NC[C@H]2C(C)C)C(=N)N1CC1CCC(C(C)(C)C)CC1 (some centres unmarked) [Compound 2718.052]	2.5 ± 0.3	2.6 ± 0.1	B (B (51–90% receptor activation))	12	2.92 ± 0.07	–	–	–	–	fold decreased mMC1R agonist potency (mMC1R; relative to 2718.003): 4 fold; mMC4R partial agonist efficacy bin (mMC4R): B (B (51–90% receptor activation))
CC(C)C[C@@H]1CNC(=N)N1C[C@@H]1CCCN1C[C@@H](Cc1ccccc1)N1C[C@H]([C@@H](C)O)N(CC2CCC(C(C)(C)C)CC2)C1=N (some centres unmarked) [Compound 2718.030]	4 ± 2	–	–	–	5 ± 2	B (B (51–90% receptor activation))	50	60	B (B (51–90% receptor activation))	–
CC(C)C[C@H]1CNC(=N)N1C[C@@H]1CCCN1C[C@@H](Cc1ccccc1)N1C[C@H]([C@@H](C)O)N(CC2CCC(C(C)(C)C)CC2)C1=N (some centres unmarked) [Compound 2718.037]	0.9 ± 0.2	–	–	–	7 ± 1	B (B (51–90% receptor activation))	50	55	B (B (51–90% receptor activation))	–
